From article PMC10584170, “Machine learning-based phenotypic imaging to characterise the targetable biology of Plasmodium falciparum male gametocytes for the development of transmission-blocking antimalarials” (PLOS Pathogens, 2023)

Key:
[1] = system: P. falciparum male gametocytes; assay: P. falciparum Dual Gamete Formation Assay (PfDGFA), male readout (exflagellation); type: cell-based, Plasmodium falciparum NF54; conditions: for IC50: this study, read-out: Pf DGFA IC50 MALE
In short: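 First, day-14 P. falciparum NF54 gametocytes receive compound for 24 h at 37°C in 1% O2/3% CO2. Next, ookinete medium with Cy3 anti-Pfs25 triggers gametogenesis at 28°C and male exflagellation is imaged. Finally, after 24 h in the dark, Cy3-labelled females are imaged.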

[2] = system: P. falciparum female gametocytes; parameters: method as in Miguel-Blanco et al 2017; conditions: ref Miguel-Blanco et al 2017; read-out: Pf female gametogenesis FGAA IC50; cited from earlier work
[3] = system: P. falciparum female gametocytes; assay: P. falciparum Female Gametocyte Activation Assay (PfFGAA); type: cell-based, Plasmodium falciparum; conditions: Mean TOX HepG2 over FGAA IC50; GREEN = >10-fold; RED = <10-fold
HepG2 cells = conditions: cited from earlier work; for FGAA TOX50 HepG2: HepG2 value reported with the FGAA screen, ref Miguel-Blanco et al 2017; for ODA TOX50 HepG2: HepG2 value reported with the ODA screen, ref Delves et al 2019
[4] = system: P. falciparum male gametocytes; assay: PhIDDLI timecourse assay, compound added at timepoints after triggering male gametogenesis; type: cell-based, Plasmodium falciparum NF54; conditions: for cells with late phenotype / cells forming exflagellation centres: compound added at 10 min post-induction; for cells forming exflagellation centres: DMSO control 17.2%; for arrest of gametogenesis: compound added concurrent with triggering gametogenesis

| IC50 [1] [nM] | SMILES | Cytotox ratio Pf Male [1] | IC50 [2] [nM] | Cytotox ratio Pf FGAA [3] | FGAA TOX50 HepG2 (HepG2 cells) [µM] | cells with late phenotype [4] [%] | cells forming exflagellation centres [4] [%] | arrest of gametogenesis [4] | ODA TOX50 HepG2 (HepG2 cells) [µM] |
| --- | --- | --- | --- | --- | --- | --- | --- | --- | --- |
| 1630 | CC(C)(CNC(=O)[C@H]1CCCCN1)c1nc(-c2ccc(Cl)c(O)c2)c(-c2ccncc2)[nH]1.Cl [TC04] | 24.9 | 530 | 76.7 | 28.96 | 86.3 | 0.4 | near total arrest |  |
| 850 | Cl.NCC1(c2nc(-c3ccc(Cl)c(O)c3)c(-c3ccncc3)[nH]2)CCCCC1 [TC41] | 26.9 | 210 | 108.8 | 11.9 | 84.9 | 1.1 | near total arrest | 46.774 |

| SMILES | IC50 [1] [nM] | Cytotox ratio Pf Male [1] | IC50 [2] [nM] | Cytotox ratio Pf FGAA [3] | FGAA TOX50 HepG2 (HepG2 cells) [µM] | cells with late phenotype [4] [%] | cells forming exflagellation centres [4] [%] | arrest of gametogenesis [4] | ODA TOX50 HepG2 (HepG2 cells) [µM] |
| --- | --- | --- | --- | --- | --- | --- | --- | --- | --- |
| CC(C)(CN)c1nc(-c2ccc(Br)c(O)c2)c(-c2ccncc2)[nH]1.Cl [TC13] | 1480 | 43.5 | 840 | 76.6 | 45.82 | 83.3 | 2.7 | near total arrest | 47.315 |
